In test [1] the target is IDO protease in HeLa cells (Homo sapiens (Human), UniProt P14902). Briefly: Inhibition of IDO protease in HeLa cells (IFNγ-induced, Trp/Kyn by RapidFire/MS). Particulars: for IC50: HeLa cells, 25 ng/ml IFNγ, 48 hours. It is filed as cell-based. An excerpt:
1) Experimental Materials and Apparatus • HeLa cells (ATCC, Cat. No. CCL-2) • γ interferon IFNγ (R&D, Cat. No. 285-IF-100) • DMEM High Glucose media (Invitrogen, Cat. No. 11965-084) • Fetal bovine serum FBS (Invitrogen, Cat. No. 10100-147) • Trypsin-EDTA (0.050%)(Invitrogen, Cat. No. 25300-054) • Phosphate buffer solution PBS, pH 7.4 (Invitrogen, Cat. No. 10010023) • Penicillin-Streptomycin (P/S) (Invitrogen, Cat. No. 15070063) • L-tryptophan (Trp) (Sigma, Cat. No. T8941) • L-kynurenine (Kyn) (Sigma, Cat. No. K8625) • N′-diformylkynurenine (NFK) (J&K, Cat. No. F700490) • 3-Nitro-L-tyrosine (J&K, Cat. No. N0905) • Acetonitrile (Sigma, Cat. No. 34851) • Dimethylsulfoxide DMSO (Sigma, Cat. No. D8418) • Inhibitor INCB024360 (Selleckchem, Cat. No. S7910) • Inhibitor INCB024360-analog (MedKoo, Cat. No. 205493) • Inhibitor NLG919 (Selleckchem, Cat. No. S7111) • 96 well transparent flat bottom polystyrene cell culture plate (Corning, Cat #3599) • 96 well V-bottom polypropylene plate (PE, Cat #6008290) • 96 well U-shaped bottom polypropylene plate (PE, Cat. No. 6008390) • Multidrop™ distribution box with small metal tip (Thermo, Cat. No. 24073295) • Multidrop™ distribution box of standard tube with metal tip (Thermo, Cat. No. 24072670) • Automatic filling platform (Agilent) • Multidrop™ Combi automatic liquid separator (Thermo) • Centrifugal machine (Eppendorf) • Cell incubator (Thermo) • Cell counter (Thermo) • RapidFire Mass system (Agilent)
2) Experimental Method for Compound Assay
The compound (compounds 4, 8, 9, 78, 91 of the present invention) was dissolved in DMSO to prepare a solution with a concentration of 3 mM, and then 15 μL of the compound solution is added to a 96 well plate, and serially diluted by 3 times dilution to obtain 10 points. 2 μL compound solution or DMSO (for HPE/ZPE) was transferred to a new 96 well plate. HeLa cell suspension was seeded into the cell culture plate with a density of 1×10^4 cells/well. For HPE control well, the cell culture medium for detection was DMEM, including 10% FBS, 1% P/S, and 122 μM Trp; for ZPE control well and the compound wells, the cell culture medium was DMEM, including 10% FBS, 1% P/S, […], and 25 ng/ml IFNγ. 192 μL detection medium prepared as above was added to a 96 well plate. 78 μL DMEM was added to the compound plate and thoroughly mixed, and then 8 μL compound solution diluted with DMEM was transferred to the 96 well plate containing the detection medium. The cell culture plate was taken out, and the cell culture medium was discarded, then 100 μL compound solution mentioned above was transferred to the cell culture plate. The cell culture plate was moved into the cell incubator and kept for 48 hours. When detected, the cell culture plate was taken out, and 50 μL supernatant was transferred to a new 96 well plate, to which was added 200 μL acetonitrile, and the plate was mixed well. The plate was centrifugated at 4° C. for 20 minutes (rotatory speed being 4000 rpm), and 40 μL supernatant was transferred to another 96 well plate, to which was further added 360 μL deionized water containing […] internal reference (3-nitro-L-tyrosine). The plate was fully mixed, and then the sample was detected by RapidFire/MS system. The standards of L-tryptophan (Trp) and L-kynurenine (Kyn) were dissolved in water to obtain a concentration of 10 mM, and the standard curve was performed by three times dilution. The inhibitory ratio was calculated by obtained data, and the IC50 curve was completed by processing the resultant data with Graphpad Prism5 software.

A further test addresses human IDO1 protease (Homo sapiens (Human), UniProt P14902). The experiment in a line: Inhibitory activity against human IDO1 protease (absorbance test method). It is filed as biochemical. As to conditions: IDO1 (His-tag) enzyme, absorbance at 320 nm. The procedure:
1) Experimental Materials and Apparatus: • IDO1 (His-tag) enzyme (BPS Bioscience) • L-tryptophan (Sigma) • Methylene blue (Sigma) • Catalase originated from the liver of cattle (Sigma) • L-ascorbic acid (Sigma) • Glycerol (Sigma) • Potassium dihydrogen phosphate solution (Sigma) • Tween 20 (Sigma) • Automatic sampling platform Liquid handler (Bravo & Echo) • Microplate Reader SpectraMax M5e (Molecular Devices)
2) Test Method of Compounds: The Compounds are Determined by Absorbance Test Method:
The tested compounds and the reference compounds are dissolved in DMSO to prepare a high concentration of storage solution. The stock solution of reference compound was diluted with DMSO to prepare a 100× solution. In the first column of the working plate, 8 μL above tested compounds and 8 μL 100× reference compound were respectively added as the highest concentration, and then the highest concentrations were subjected to three times dilution to obtain 11 concentrations and prepare 100× solution. 0.5 μL solution was transferred from the above plate to the detection plate. […]. For HPE and ZPE control wells, 0.5 μL 100% DMSO was added.
25 μL 2×IDO1 (His-tag) enzyme solution (containing L-ascorbic acid, methylene blue, and catalase) was added to each well. 25 μL reaction solution without IDO1 (His-tag) enzyme was added into HPE control well. The test plate was centrifugated at 1000 rpm for 1 minute to mix well. Then, the test plate was incubated at room temperature for 30 minutes. 25 μL above 2× substrate (L-tryptophan) solution was added to each well. The test plate was centrifugated at 1000 rpm for 1 minute to mix well. The detection plate was placed on ELISA (SpectraMax M5e), the temperature was set at 25° C., and the absorbance (OD value) was measured at 320 nm every 10 minutes till 60 minutes.
Calculating the increase ratio of absorbance: the slope of the absorbance increase curve from 10 min to 60 min is derived from SpectralMax M5e. The inhibition coefficient of compound was calculated: the inhibition ratio of compound=(the absorbance increase ratio of ZPE control well−the absorbance increase ratio of compound well)/(the absorbance increase ratio of ZPE control well−the absorbance increase ratio of HPE control well)×100. Results was analyzed by Prism 5.0.

Usually IC50 stands for the midpoint of a concentration-inhibition curve. The low end stands for greater potency in that assay, the high end for weaker potency in that assay.

Each structure is given as a SMILES string.

IDO protease in HeLa cells, sequence (P14902 whole entry): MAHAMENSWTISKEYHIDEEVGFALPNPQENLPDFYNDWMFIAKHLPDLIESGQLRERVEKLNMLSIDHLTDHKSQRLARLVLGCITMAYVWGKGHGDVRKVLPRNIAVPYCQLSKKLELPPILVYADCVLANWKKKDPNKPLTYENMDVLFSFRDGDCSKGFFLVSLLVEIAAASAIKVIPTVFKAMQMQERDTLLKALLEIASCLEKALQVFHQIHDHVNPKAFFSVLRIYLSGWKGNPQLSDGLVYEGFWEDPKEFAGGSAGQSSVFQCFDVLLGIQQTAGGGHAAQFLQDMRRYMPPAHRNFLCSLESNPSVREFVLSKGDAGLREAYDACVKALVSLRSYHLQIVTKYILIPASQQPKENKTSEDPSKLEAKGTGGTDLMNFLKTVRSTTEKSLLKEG
human IDO1 protease, sequence (P14902 whole entry): as above

For `NS(=O)(=O)N1CC(CSc2nonc2/C(=N/O)Nc2ccc(F)c(Br)c2)C1` [Compound 148], in test [1], the midpoint of inhibition, the IC50, lay at 14 nM. Turning to `[2H]C([2H])(Nc1nonc1/C(=N/O)Nc1ccc(F)c(Br)c1)C1CN(S(N)(=O)=O)C1` [Compound 150, (Z)—N-(3-bromo-4-fluorophenyl)-N′-hydroxyl-4-(((1-sulfadiazin-3-yl)methyl-D2)amino)-1,2,5-oxadiazol-3-carboxyoximide], the values for the IC50 (against human IDO1 protease; in test [1]) were 81 nM and 9 nM, respectively.

For `CNS(=O)(=O)N1CC(CNc2nonc2C(=NO)Nc2ccc(F)c(Br)c2)C1` [Compound 78], the IC50 at human IDO1 protease was 69 nM; in test [1], 13 nM. `NS(=O)(=O)N1CC(CCNc2nonc2/C(=N/O)Nc2ccc(F)c(Br)c2)C1` [Compound 132, (Z)—N-(3-bromo-4-fluorophenyl)-N′-hydroxyl-4-((2-(1-sulfamoylazetidin-3-yl)ethyl)amino)-1,2,5-oxadiazol-3-formamidine] gave a half-maximal inhibitory concentration (IC50) in test [1] of 10 nM.

Take `NC(=O)N1CC(CNc2nonc2/C(=N/O)Nc2ccc(F)c(Br)c2)C1` [Compound 140, (Z)—N-(3-bromo-4-fluorophenyl)-N′-hydroxyl-4-(((1-carbamoylazetidin)-3-methyl)amino)-1,2,5-oxadiazol-3-formamidine]: in test [1], the IC50 was found to be 75 nM.

With `NS(=O)(=O)N1CC[C@H](CNc2nonc2/C(=N/O)Nc2ccc(F)c(Br)c2)C1` [Compound 9, (R)—N-(3-bromo-4-fluorophenyl)-N′-hydroxyl-4-(((1-sulfamoylpyrrolidine-3-yl)methyl)amino)-1,2,5-oxadiazole-3-formamidine], the figures for the IC50 (on human IDO1 protease; in test [1]) were 84 nM and 15 nM, respectively.

Compound `NS(=O)(=O)N1CC(F)(CNc2nonc2C(=NO)Nc2ccc(F)c(Br)c2)C1` [Compound 91, (Z)—N-(3-bromo-4-fluorophenyl)-4-(3-fluoro-1-sulfadiazin-3-yl)methyl)amino)-N′-hydroxyl 1,2,5-oxadiazol-3-carboxyoximide] showed a 50% inhibitory concentration (IC50) in test [1] of 74 nM.

In test [1], `NS(=O)(=O)N1CC(CCSc2nonc2/C(=N/O)Nc2ccc(F)c(Br)c2)C1` [Compound 149, (Z)—N-(3-bromo-4-fluorophenyl)-N′-hydroxyl-4-((2-(1-sulfamoylazetidin-3-yl)ethyl)thio)-1,2,5-oxadiazol-3-formamidine] came in with an IC50 of 18 nM.

Consider `NS(=O)(=O)N1CCC(CCNc2nonc2/C(=N/O)Nc2ccc(F)c(Br)c2)CC1` [Compound 19, N-(3-bromo-4-fluorophenyl)-N′-hydroxyl-4-((2-(1-sulfamoylazacyclohexane-4-yl)ethyl)amino)-1,2,5-oxadiazole-3-formamidine], for which the IC50 at human IDO1 protease was 119 nM. `O/N=C(\Nc1ccc(F)c(Br)c1)c1nonc1NCC1CNC1` [Compound 2, 4-((Azetidin-3-ylmethyl)amino)-N-(3-bromo-4-fluorophenyl)-N′-hydroxyl-1,2,5-oxadiazole-3-formamidine] came in with an IC50 against human IDO1 protease of 182 nM. On to `NS(=O)(=O)N1CC(F)(CNc2nonc2/C(=N/O)Nc2ccc(F)c(Br)c2)C1` [Compound 91], for which, on human IDO1 protease, the IC50 was 128 nM. Besides, the “inhibitory activities on IDO protease in HeLa cells (in words)” value in test [1] is on record as “excellent”. Consider `NS(=O)(=O)N1CCCC1CCNc1nonc1/C(=N/O)Nc1ccc(F)c(Br)c1` (centres unmarked) [Compound 16, N-(3-bromo-4-fluorophenyl)-N′-hydroxyl-4-((2-(1-sulfamoylazacyclopentan-2-yl)ethyl)amino)-1,2,5-oxadiazole-3-formamidine], for which 151 nM corresponded to half-maximal inhibition at human IDO1 protease (IC50). Take `O=S(=O)(C1CC1)N1CCC(CNc2nonc2/C(=N/O)Nc2ccc(F)c(Br)c2)C1` (centres unmarked) [Compound 21, N-(3-bromo-4-fluorophenyl)-N′-hydroxyl-4-(((1-cyclopropylsulfonylazacyclopentan-3-yl)methyl)amino)-1,2,5-oxadiazole-3-formamidine]: the IC50 on human IDO1 protease was determined as 141 nM.

Consider `CS(=O)(=O)N1CCC(CNc2nonc2/C(=N/O)Nc2ccc(F)c(Br)c2)C1` (centres unmarked) [Compound 20, N-(3-bromo-4-fluorophenyl)-N′-hydroxyl-4-(((1-methylsulfonylazacyclopentan-3-yl)methyl)amino)-1,2,5-oxadiazole-3-formamidine], for which, at human IDO1 protease, the half-maximal inhibitory concentration (IC50) was determined as 79 nM. `NS(=O)(=O)N1CCC(O)(CNc2nonc2C(=NO)Nc2ccc(F)c(Br)c2)C1` (centres unmarked) [Compound 151] showed an IC50 against human IDO1 protease of 101 nM. Regarding `NS(=O)(=O)N1CC[C@@H](CNc2nonc2/C(=N/O)Nc2ccc(F)c(Br)c2)C1` [Compound 8, (S)—N-(3-Bromo-4-fluorophenyl)-N′-hydroxyl-4-(((1-sulfamoylpyrrolidine-3-yl)methyl)amino)-1,2,5-oxadiazole-3-formamidine], the IC50 came out at 112 nM on human IDO1 protease and 17 nM in test [1]. Turning to `O=S(=O)(C1CC1)N1CC(CNc2nonc2/C(=N/O)Nc2ccc(F)c(Br)c2)C1` [Compound 86, (Z)—N-(3-Bromo-4-fluorophenyl)-4-(((1-(cyclopropylsulfonyl)azido-3-yl)methyl)amino)-N′-hydroxyl-1,2,5-oxadiazol-3-carboxyoximide], inhibition at human IDO1 protease was half-maximal at 167 nM (IC50). At human IDO1 protease, `CS(=O)(=O)N1CC(CNc2nonc2C(=NO)Nc2ccc(F)c(Br)c2)C1` [Compound 85] came in with an IC50 of 115 nM.

These data come from patent US11447477B2, “Indoleamine-2,3-dioxygenase inhibitor, the preparative method and the use thereof” (HINOVA PHARMACEUTICALS INC., priority 2017, dated 2022).
